Laboratory results: patent US8420673B2, “Fungicidal amides” (E I du Pont de Nemours and Company, priority 2007, dated 2013)
Like-named read-outs stand apart in the source and are kept apart here.

What was measured:
Assay type in all cases: in vivo
Phytophthora infestans [1] = conditions: tomato seedlings, sprayed to run-off 17 h after inoculation
Phytophthora infestans [2] = conditions: tomato seedlings, sprayed to run-off the day before inoculation
Plasmopara viticola = experiment: Test A: grape downy mildew, test suspension sprayed after inoculation, visual disease rating; conditions: grape seedlings, sprayed to run-off 24 h after inoculation
[3] = no asterisk, test concentration not given

Compound	Test C rating (disease control) (Phytophthora infestans [1]; [3])	Test B rating (disease control) (Phytophthora infestans [2]; [3])	Test A rating (disease control) (Plasmopara viticola; [3])	Test C rating (disease control) (Phytophthora infestans [1]; compound tested at 40 ppm)	Test B rating (disease control) (Phytophthora infestans [2]; compound tested at 40 ppm)	Test A rating (disease control) (Plasmopara viticola; compound tested at 40 ppm)
Cc1cc(C(F)(F)F)nn1CC(=O)N1CCC(c2nc(CN[C@@H]3CCCc4ccccc43)cs2)CC1 [Compound 2, 2-[5-methyl-3-(trifluoromethyl)-1H-pyrazol-1-yl]-1-[4-[4-[[[(1R)-1,2,3,4-tetrahydro-1-naphthalenyl]amino]methyl]-2-thiazolyl]-1-piperidinyl]ethanone]	93%	100%	28%			
CC(=O)N(Cc1csc(C2CCN(C(=O)Cn3nc(C(F)(F)F)cc3C)CC2)n1)[C@@H]1CCCc2ccccc21 [Compound 3, N-[[2-[1-[2-[5-methyl-3-(trifluoromethyl)-1H-pyrazol-1-yl]acetyl]-4-piperidinyl]-4-thiazolyl]methyl]-N-[(1R)-1,2,3,4-tetrahydro-1-naphthalenyl]acetamide]	53%	85%	55%			
Cc1cc(C(F)(F)F)nn1CC(=O)N1CCC(c2nc(CN(C)[C@@H]3CCCc4ccccc43)cs2)CC1 [Compound 1, 1-[4-[4-[[methyl[(1R)-1,2,3,4-tetrahydro-1-naphthalenyl]amino]methyl]-2-thiazolyl]-1-piperidinyl]-2-[5-methyl-3-(trifluoromethyl)-1H-pyrazol-1-yl]ethanone]	99%	100%	72%			
Cc1cc(C(F)(F)F)nn1CCC(=O)N1CCC(c2nc(C(=O)N(C)[C@@H]3CCCc4ccccc43)cs2)CC1 [Compound 5, N-methyl-2-[1-[3-[5-methyl-3-(trifluoromethyl)-1H-pyrazol-1-yl]-1-oxopropyl]-4-piperidinyl]-N-[(1R)-1,2,3,4-tetrahydro-1-naphthalenyl]-4-thiazolecarboxamide]				0%	57%	17%
CCOC(=O)C(C(=O)N1CCC(c2nc(C(=O)N(C)C3CCCc4ccccc43)cs2)CC1)n1nc(C(F)(F)F)cc1C (stereo not drawn) [Compound 6, ethyl 4-[4-[[methyl(1,2,3,4-tetrahydro-1-naphthalenyl)amino]carbonyl]-2-thiazolyl]-α-[5-methyl-3-(trifluoromethyl)-1H-pyrazol-1-yl]-β-oxo-1-piperidinepropanoate]				0%	17%	72%
Cc1cc(C(F)(F)F)nn1CC(=O)N1CCC(c2nc(CN(C=O)[C@@H]3CCCc4ccccc43)cs2)CC1 [Compound 4, N-[[2-[1-[2-[5-methyl-3-(trifluoromethyl)-1H-pyrazol-1-yl]acetyl]-4-piperidinyl]-4-thiazolyl]methyl]-N-[(1R)-1,2,3,4-tatrahydro-1-naphthalenyl]formamide]	26%	87%	0%			
